Format in all cases: in vivo, human
Conditions in all cases: efficacy grade

Test [1] deals with Deranged immune disorders and inflammation. Put plainly: Summary of test results in volunteer subjects: deranged immune disorders and inflammation. The source says:
(§1) In one embodiment, a composition for topical application to test its therapeutic effect was formulated by dissolving a bioactive dipeptide derivative of the present invention in a solution prepared from 40 parts water, 40 parts ethanol and 20 parts propylene glycol by volume (WEP442). In another embodiment, a composition was formulated by dissolving a bioactive dipeptide derivative of the present invention in a non-aqueous solution prepared from 80 parts ethanol and 20 parts propylene glycol by volume (EP82). In yet another embodiment, a composition was formulated first by dissolving a bioactive dipeptide derivative of the present invention in a solution prepared from 80 parts water and 20 parts propylene glycol by volume (WP82), and the solution thus prepared was mixed with an oil-in-water emulsion or cream. In another embodiment, the volunteer subject topically applied the test compositions containing N-acyldipeptide derivatives of the present invention on involved skin or lesions once or twice daily for several weeks or until the involved lesions completely cleared and clinically changed to normal skin. As a control study, the subject also topically applied a vehicle control composition on the involved skin or lesions twice daily for the same period. In yet another embodiment, the volunteer subject topically applied once or twice daily the test compositions containing N-acyldipeptide derivatives of the present invention on the skin site above arthritic joints or painful muscles to provide therapeutic effects for the systemic disorders via topical administration. Some test results are summarized as follows. DI: Deranged immune disorders and inflammation

The next test deals with Nerve disorders. Put plainly: Summary of test results in volunteer subjects: nerve disorders.
Description: as §1, with “ND: Nerve” for “DI: Deranged immune”, “disorders” for “disorders and inflammation”

For test [2], the system named is Aging related changes of skin, nail and hair. Put plainly: Summary of test results in volunteer subjects: aging related changes.
Description: as §1, with “AG: Aging related changes of skin, nail” for “DI: Deranged immune disorders”, “hair” for “inflammation”

A further test concerns Disturbed keratinization. The experiment in a line: Summary of test results in volunteer subjects: disturbed keratinization.
Description: as §1, with “DK: Disturbed keratinization” for “DI: Deranged immune disorders and inflammation”

The structures appear in SMILES notation. Peptide text beside a SMILES is read from it.

On to `CC(=O)N[C@@H](CC(C)C)C(=O)N[C@@H](Cc1ccc(O)cc1)C(N)=O` [N-Ac-L-Leu-L-Tyr-NH2] (Ac-Leu-Tyr-NH2), for which the DI in test [1] is listed as 2+ (2+: 50% Efficacy). Besides, the ND with Nerve disorders is on record as 2+ (2+: 50% Efficacy). For the same compound, the AG in test [2] was 2+ (2+: 50% Efficacy). In addition, in the test on Disturbed keratinization, the DK is listed as 2+ (2+: 50% Efficacy).
For `CC(=O)N[C@@H](Cc1ccccc1)C(=O)N[C@@H](Cc1ccccc1)C(N)=O` [N-Ac-L-Phe-L-Phe-NH2] (Ac-Phe-Phe-NH2), the DI in test [1] is given as 2+ (2+: 50% Efficacy). For the same compound, the ND in the test on Nerve disorders was 2+ (2+: 50% Efficacy). Besides, the AG in test [2] is reported as 2+ (2+: 50% Efficacy). Moreover, the DK in the test on Disturbed keratinization is reported as 2+ (2+: 50% Efficacy).
`CC(=O)N[C@@H](CO)C(=O)NCC(N)=O` [N-Ac-L-Ser-Gly-NH2] (Ac-Ser-Gly-NH2): the DI in test [1] is given as 2+ (2+: 50% Efficacy). For the same compound, the ND with Nerve disorders is listed as 2+ (2+: 50% Efficacy). In test [2], the AG was 2+ (2+: 50% Efficacy). The DK in the test on Disturbed keratinization is 2+ (2+: 50% Efficacy).
As for `CC(=O)N[C@@H](Cc1c[nH]c2ccccc12)C(=O)N[C@@H](Cc1c[nH]c2ccccc12)C(N)=O` [N-Ac-L-Trp-L-Trp-NH2] (Ac-Trp-Trp-NH2), the DI in test [1] is 2+ (2+: 50% Efficacy). In the test on Nerve disorders, the ND is on record as 2+ (2+: 50% Efficacy). Moreover, in test [2], the AG is 2+ (2+: 50% Efficacy). In addition, the DK with Disturbed keratinization is reported as 2+ (2+: 50% Efficacy).
`CC(=O)N[C@@H](Cc1ccc(O)cc1)C(=O)NCC(N)=O` [N-Ac-L-Tyr-Gly-NH2]: the DI in test [1] is 2+ (2+: 50% Efficacy). In addition, the ND with Nerve disorders was 2+ (2+: 50% Efficacy). Besides, the AG in test [2] is listed as 2+ (2+: 50% Efficacy). For the same compound, in the test with Disturbed keratinization, the DK is given as 2+ (2+: 50% Efficacy).
`CCOC(=O)[C@H](Cc1ccc(O)cc1)NC(=O)[C@H](Cc1ccc(O)cc1)NC(C)=O` [N-Ac-L-Tyr-L-Tyr-OEt] (HELM PEPTIDE1{[ac].Y.Y.[CCO[*:1]]}$$$$V2.0): the DI in test [1] is listed as 2+ (2+: 50% Efficacy). The ND in the test with Nerve disorders is recorded as 2+ (2+: 50% Efficacy). The AG in test [2] is given as 2+ (2+: 50% Efficacy). The DK in the test on Disturbed keratinization was 2+ (2+: 50% Efficacy).
As for `CC(=O)N[C@H](C(=O)NCC(N)=O)C(C)C` [N-Ac-L-Val-Gly-NH2] (Ac-Val-Gly-NH2), the DI in test [1] was 4+ (4+: 95-100% Efficacy). In addition, in the test with Nerve disorders, the ND is recorded as 4+ (4+: 95-100% Efficacy). Also, in test [2], the AG was 2+ (2+: 50% Efficacy). The DK in the test with Disturbed keratinization is 2+ (2+: 50% Efficacy).
Regarding `CC(=O)N[C@H](C(=O)NCC(=O)O)C(C)C` [N-Ac-L-Val-Gly-OH] (Ac-Val-Gly-OH), the DI in test [1] was 3+ (3+: 75% Efficacy). The ND in the test on Nerve disorders is reported as 4+ (4+: 95-100% Efficacy). The AG in test [2] was 2+ (2+: 50% Efficacy). Further, the DK in the test with Disturbed keratinization is 2+ (2+: 50% Efficacy).
As to `CC(=O)N[C@H](C(=O)N[C@@H](C)C(=O)O)C(C)C` [N-Ac-L-Val-L-Ala-OH] (Ac-Val-Ala-OH), the DI in test [1] is 3+ (3+: 75% Efficacy). The ND with Nerve disorders was 4+ (4+: 95-100% Efficacy). Besides, the AG in test [2] is recorded as 2+ (2+: 50% Efficacy). Further, the DK in the test on Disturbed keratinization was 2+ (2+: 50% Efficacy).
Take `CC(=O)N[C@H](C(=O)N[C@@H](Cc1ccc(O)cc1)C(N)=O)C(C)C` [N-Ac-L-Val-L-Tyr-NH2] (Ac-Val-Tyr-NH2): the DI in test [1] was 2+ (2+: 50% Efficacy). In addition, the ND in the test on Nerve disorders is on record as 2+ (2+: 50% Efficacy). Further, the AG in test [2] is 2+ (2+: 50% Efficacy). The DK with Disturbed keratinization was 2+ (2+: 50% Efficacy).
Regarding `CC(=O)NCCC(=O)NCC(N)=O` [N-Ac-β-Ala-Gly-NH2], the DI in test [1] was 2+ (2+: 50% Efficacy). In the test with Nerve disorders, the ND is 2+ (2+: 50% Efficacy). Further, in test [2], the AG is 2+ (2+: 50% Efficacy). The DK in the test on Disturbed keratinization is reported as 2+ (2+: 50% Efficacy).
As to `CC(=O)NCCC(=O)N[C@@H](Cc1c[nH]cn1)C(N)=O` [N-Ac-βAla-L-His-NH2], in test [1], the DI is recorded as 2+ (2+: 50% Efficacy). Also, the ND with Nerve disorders is recorded as 2+ (2+: 50% Efficacy). In addition, in test [2], the AG is 2+ (2+: 50% Efficacy). The DK with Disturbed keratinization is given as 2+ (2+: 50% Efficacy).

Values taken from US11224565B2, “N-acyldipeptide derivatives and their uses” (NeoStrata Company, Inc., priority 2011, dated 2022).
